Source: patent publication US8378071B2, “Peptide epitopes of VEGFR-2/KDR that inhibit angiogenesis” (The United States of America as Represented by the …, priority 2005, dated 2013)

Experiments:
[1] = target: T1, HLA-A2 (Homo sapiens, UniProt P04439, D140Y/D185E/D98H/E176V/E277Q/G131W/G231S/I119V/I121R/I166T/I218V/L300P/L318F/N151K/N90K/P208A/P217A/Q86G/Q94H/R138H/R169H/T345S); assay: T2 binding assay (HLA-A2 stabilization); conditions: T2 cells, FIG. 7
T1 construct: endogenous in cells; host or cells: T2 cells
Source text: The ability of any of the above described peptides to bind MHC Class I can be confirmed using assays available in the art. For example, the ability of a murine VEGFR-2/KDR peptide to bind a mouse Class I molecule, such as H-2 Db can be determined in a MHC stabilization assay employing RMA-S cells as described in Lyman et al., J. Virol. 76:3125-3134, 2002, and in the EXAMPLES Section below. The ability of a human VEGFR-2/KDR peptide to bind a human Class I molecule, such as an HLA-A2 protein can be evaluated in a T2 MHC binding assay as described by Cerundolo et al., Nature 342:449-452, 1990. In brief, T2 cells are cultured in RPMI1640 with 10% FBS, and grown in 5% CO2 at 37° C. […] The level of stabilized HLA-A2 on the surface of the T2 cells is detected using the pan HLA class I monoclonal antibody W6/32 (European Collection of Animal Cell Cultures (ECACC), Porton Down, Salisbury) that recognizes stabilized HLA-A2 complexes. The primary monoclonal antibody can be labeled or can be detected using, e.g., a labeled goat antimouse IgG (Cambridge Biosciences, Cambridge, United Kingdom) as the second layer. Samples are fixed in 1% paraformaldehyde in PBS prior to analysis and analyzed on a Becton Dickinson FACSCAN®. […]

[2] = test system: EL4 cells pulsed with peptides; assay: 4-hour 51Cr release assay, CTLs from immunized mice, EL4 targets; assay type: cell-based, mouse; conditions: E:T ratio 50:1; for Percentage of lyses by induced CTLs, control: control for EL4 pulsed with peptide; for Percentage of lyses by induced CTLs: targets EL4 pulsed with the vaccinated peptide
Method: (§1) FIGS. 4A-D are line graphs illustrating the results of standard 4 hr ^51Cr release test. Three weeks after immunization, spleen cells were prepared from immunized mice (4-5 mice per group) and restimulated with vaccinated peptides in a 24-well plate in the presence of RPMI 1640 (Invitrogen) with 10% FCS. 10% T-stim was added 48 hours later into the culture media and the cells were incubated for 5 days at 37° C. The CTL activity was tested in a 4-hour ^51Cr release assay. Target cells include VEGFR-2/KDR+H5V (H-2d) and bEND3 (H-2b) endothelial cells, VEGFR-2/KDR-EL4 cells pulsed with peptides or EL4 alone. The percentage of specific lysis was calculated using the formula: (experimental release−spontaneous release)/(maximum release−spontaneous release)×100. Upper panel: effector cells from mice immunized with KDR2, Lower panel: effectors from KDR3 immunized mice.
(§2) Chromium (^51Cr) Release Assays were used to determine whether T cells identified as binding to VEGFR-2/KDR specifically targeted endothelial cells. Mice were vaccinated twice with 5 μg GM-CSF, 20 μg anti-CD40 and 100 μg peptide per mice. Briefly, spleen cells were prepared from immunized mice (4-5 mice per group) and restimulated with the vaccinated peptides in 24-well plates in RPMI 1640 (Invitrogen) with 10% FCS. Forty-eight hours later, 10% T-stim (BD Bioscience) was added into the culture media. CTL activity was tested in a 4-hour ^51Cr release assay 5 days later. VEGFR-2/KDR+syngeneic H5V (H-2d), allogeneic bEND3 (H-2b) endothelial cells and VEGFR-2/KDR syngeneic EL4 cells pulsed with peptides or EL4 alone served as target cells. The percentage cytotoxicity was calculated using the formula: (experimental release−spontaneous release)/(maximum release−spontaneous release)×100.

[3] = test system: H5V endothelial cells; assay: 4-hour 51Cr release assay, CTLs from immunized mice, endothelial cell targets; assay type: cell-based, mouse; conditions: for Percentage of lyses by induced CTLs, control: control for H5V; for Percentage of lyses by induced CTLs, control / Percentage of lyses by induced CTLs: E:T ratio 50:1; for Lysis of H5V cells and peptide-pulsed EL4 by induced CTLs (in words): not bEND3 or EL4 alone, FIG. 4; for Percentage of lyses by induced CTLs: targets H5V
Method: as §1, §2

[4] = test system: IFN-γ secreting spleen cells / DLN cells; assay: IFN-γ Elispot assay on splenocytes or draining lymph node cells of peptide-vaccinated mice; assay type: in vivo, C57BL/6 mice; conditions: for IFN-γ secreting cells per million fresh DLN cells: stimulated with syngeneic VEGFR-2/KDR expressing H5V cells, FIG. 2C
Source text: FIGS. 2A-C are bar graphs representing the results of IFN-Eli spot assays. Four groups of mice (5 mice per group) were vaccinated with different peptides (KDR1, KDR2, KDR3). Mice were sacrificed, spleen or drained lymph nodes (DLN) cells prepared as described in methods section served as effectors. Syngeneic EL4 cells (3,000 rads) pulsed with peptides or H5V cells after treated with MMC served as stimulators. Irradiated EL4 without peptide or MMC treated allogeneic bEND3 cells as control. Dot bar: EL4 pulsed with irrelevant peptide as negative control; Solid bar: EL4 pulsed with KDR2 or KDR3 respectively; Open bar: EL4 without any peptide; A. Results of fresh spleen cells; B. Results of spleen cells after 1 week restimulation in vitro; C. Cells from fresh drained lymph nodes stimulated with H5V or bEND3 cells.
Mice were immunized with selected peptide, together with murine GM-CSF and anti-mouse CD40 as adjuvants. An emulsion containing 50 μl Incomplete Freud's Adjuvants (IFA, Sigma) with or without 100 […] of peptide and 5 μg murine GM-CSF (Pepro Tech), 20 μg anti-murine CD40 monoclonal antibody (Southern Biotech, Clone number 1C10) was prepared in a final volume of 100 μl. Subcutaneous injections were performed on the tails of the mice with 1 ml syringes and 30 gauge needles. For the Matrigel Plug Assay, two boosts were injected at 4 week intervals.
IFN-γ Elispots assay was performed on draining lymph nodes cells (DLN) or splenocytes collected 2 weeks after vaccination to evaluate the antigen specific immune response against the VEGFR-2/KDR peptides. Elispot plates (Millipore, Bedford, Mass.) were coated with 8 μg of anti-gamma interferon (IFN-γ) antibody per ml in sterile phosphate-buffered saline (PBS) overnight at 4° C. Plates were washed and then blocked with RPMI 1640 with 10% FBS. Fresh splenocytes or cells after 1 week in vitro restimulation were used as effectors. 1 or 5×10^5 effector cells were co-cultured overnight with or without 2×10^5 irradiated (3,000 rads) EL4 cells in 200 μl media at 37° C., 5% CO2 in the presence of appropriate concentration of peptide. When H5V and bEND3 cells in stead of EL4 were used as stimulators, they were treated with 0.1 mg/ml mitomycin C (Sigma, St. Louis) for half an hour at 37° C., then wash three times with PBS. 5×10^4H5V or bEND3 cells were co-cultured overnight with 2×10^5 draining lymph nodes cells. Spots were developed as previously described using biotin-conjugated anti-cytokine antibodies (Endogen, Boston, Mass.) and streptavidin-horseradish peroxidase in 1% BSA-PBS.

[5] = target: T2, H-2 Db (Mus musculus, UniProt P01899); assay: RMA-S binding assay (MHC stabilization, flow cytometry); conditions: for Concentration at FI=0.5: RMA-S cells loaded 16 to 18 h at 37° C, FI = fluorescence with peptide/without peptide - 1; for Binding to H-2 Db (in words): RMA-S cells, FIG. 1
T2 construct: enhance surface expression of the respective MHC class I molecules on these cells by stabilizing the peptide-MHC complex; endogenous in cells; host or cells: RMA-S (H-2b) cells
T2 sequence (P01899 25-362): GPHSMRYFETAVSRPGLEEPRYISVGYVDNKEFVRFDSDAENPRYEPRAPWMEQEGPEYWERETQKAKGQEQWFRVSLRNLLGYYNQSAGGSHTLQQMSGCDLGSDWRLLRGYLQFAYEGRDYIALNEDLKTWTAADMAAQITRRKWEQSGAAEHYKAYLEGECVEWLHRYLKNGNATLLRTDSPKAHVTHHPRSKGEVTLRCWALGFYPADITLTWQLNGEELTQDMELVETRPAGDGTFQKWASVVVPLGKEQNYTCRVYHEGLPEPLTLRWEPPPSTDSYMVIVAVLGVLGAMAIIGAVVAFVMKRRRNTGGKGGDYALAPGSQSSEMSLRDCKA
T2 sequence (P01887 21-119 partner): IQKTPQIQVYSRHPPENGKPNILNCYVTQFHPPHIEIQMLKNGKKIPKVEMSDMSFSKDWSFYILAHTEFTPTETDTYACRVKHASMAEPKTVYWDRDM
Method: FIG. 1 is a line graph illustrating results of an RMA-S binding assay. KDR2 and KDR3 bind efficiently to H-2 Db molecules. RMA-S cells were loaded with various peptides for 16 to 18 h at 37° C. Levels of surface class I molecules were assessed by flow cytometric analysis using mouse monoclonal antibodies specific for H-2 Db. FI=Fluoresce measurement after peptides stimulation/Fluoresce measurement without peptide-1. : KDR1, ▴: KDR2, : KDR3, ◯: wild type P53 264-272, : HPV 16 E7 49-57. HPV E7 49-57 and Human P53 264-272 serve as positive and negative control respectively. The results shown here are representative of three separate experiments.
To test the binding affinity of these peptides to H-2 Db, an RMA-S binding experiment was performed, and the FI value in the assay was measured. […] The RMA-Binding assays were performed as previously described (Lyman et al., J. Virol. 76:3125-3134, 2002). Briefly, synthetic peptides were dissolved in dimethyl sulfoxide before dilution. For MHC-binding assays, RMA-S cells were loaded with various peptides for 16 to 18 h at 37° C. Levels of surface class I molecules were assessed by flow cytometric analysis (FACScan; Becton Dickinson) using mouse monoclonal antibodies specific for H-2 Db (Southern Biotech, clone No. 28-14-8). FI=Fluorescence after peptides stimulation/Fluorescence without peptide-1.
Previous data have shown that the HPV16E7 49-57 can bind to H-2 Db molecules efficiently and induce a strong CTL response in B6 mice (Feltkamp et al., Eur. J. Immunol. 23:2242-2249, 1993). HPV16E7 49-57 peptide was used as a positive control; and the human P53 264-272, known to bind HLA-A2 but not H-2 Db, was used as a negative control (FIG. 1).

Substance	Percentage of lyses by induced CTLs, control [2]	Percentage of lyses by induced CTLs [2] [%]	Percentage of lyses by induced CTLs, control [3] [%]	Lysis of H5V cells and peptide-pulsed EL4 by induced CTLs (in words) [3]	Percentage of lyses by induced CTLs [3] [%]	IFN-γ secreting fresh spleen cells relative to irrelevant HPV E7 peptide / background ([4]; FIG. 2A)	IFN-γ secreting cells per million fresh DLN cells [4] [per million cells]	Concentration at FI=0.5 [5]	Binding to H-2 Db (in words) [5]	further results
AMFFWLLLV [KDR775, human VEGFR-2/KDR peptide]	–	–	–	–	–	–	–	–	–	Affinity for MHC molecules relative to the other peptides (in words) [1]: substantially higher affinity
FSNSTNDILI [KDR3, murine VEGFR-2/KDR peptide, location 615-624]	0%	21	3	can lyse	13	about 6 times	161	about 3 μM	bind well	Number of IFN-γ secreting fresh spleen cells after pulsing with peptide ([4]; fresh spleen cells of vaccinated mice, FIG. 2A): 176
HPV16E7 49-57: Human Papilloma Virus 16E7 49-57 peptide, known H-2 Db binder, positive control (RAHYNIVTF) [reference compound]	–	–	–	–	–	–	–	about 12.5 μM	–	–
LLSEKNVVKI [KDR1, murine VEGFR-2/KDR peptide, location 1033-1042]	–	–	–	–	–	–	–	–	–	IFN-γ secreting cells relative to background after 1 week in vitro culture with the vaccinated peptide ([4]; spleen cells restimulated 1 week in vitro, FIG. 2B): remained negative
P53 264-272: human P53 264-272 peptide, binds HLA-A2 but not H-2 Db, negative control [reference compound]	–	–	–	–	–	–	–	> 200 µM	does not bind	–
VILTNPISM [KDR2, murine VEGFR-2/KDR peptide, location 400-408]	about 8%	25	~1	can lyse	28	about 50 times	360	about 24 μM	bind well	–
